Measured values taken from paper PMC6618152, “Abscisic acid is a substrate of the ABC transporter encoded by the durable wheat disease resistance gene Lr34” (The New Phytologist, 2019).

Assays:
LR34res [1] = biological target: T1, LR34res (Triticum aestivum, UniProt A0A9R1MFS8); test: inhibition of 3H-ABA uptake in yeast YMM12; format: cell-based; details: 20 min preincubation, then 10 min with labelled ABA; general ABC transporter inhibitor; allele in this panel not stated, taken as LR34res
T1 construct: gene CFC21_107174; full-length cDNA from p6U:cLr34res, C-terminal HA tag, in pNEV-N; expressed in Saccharomyces cerevisiae W303 and YMM12; predicted c; 160 kDa
T1 sequence (A0A9R1MFS8 1-1401): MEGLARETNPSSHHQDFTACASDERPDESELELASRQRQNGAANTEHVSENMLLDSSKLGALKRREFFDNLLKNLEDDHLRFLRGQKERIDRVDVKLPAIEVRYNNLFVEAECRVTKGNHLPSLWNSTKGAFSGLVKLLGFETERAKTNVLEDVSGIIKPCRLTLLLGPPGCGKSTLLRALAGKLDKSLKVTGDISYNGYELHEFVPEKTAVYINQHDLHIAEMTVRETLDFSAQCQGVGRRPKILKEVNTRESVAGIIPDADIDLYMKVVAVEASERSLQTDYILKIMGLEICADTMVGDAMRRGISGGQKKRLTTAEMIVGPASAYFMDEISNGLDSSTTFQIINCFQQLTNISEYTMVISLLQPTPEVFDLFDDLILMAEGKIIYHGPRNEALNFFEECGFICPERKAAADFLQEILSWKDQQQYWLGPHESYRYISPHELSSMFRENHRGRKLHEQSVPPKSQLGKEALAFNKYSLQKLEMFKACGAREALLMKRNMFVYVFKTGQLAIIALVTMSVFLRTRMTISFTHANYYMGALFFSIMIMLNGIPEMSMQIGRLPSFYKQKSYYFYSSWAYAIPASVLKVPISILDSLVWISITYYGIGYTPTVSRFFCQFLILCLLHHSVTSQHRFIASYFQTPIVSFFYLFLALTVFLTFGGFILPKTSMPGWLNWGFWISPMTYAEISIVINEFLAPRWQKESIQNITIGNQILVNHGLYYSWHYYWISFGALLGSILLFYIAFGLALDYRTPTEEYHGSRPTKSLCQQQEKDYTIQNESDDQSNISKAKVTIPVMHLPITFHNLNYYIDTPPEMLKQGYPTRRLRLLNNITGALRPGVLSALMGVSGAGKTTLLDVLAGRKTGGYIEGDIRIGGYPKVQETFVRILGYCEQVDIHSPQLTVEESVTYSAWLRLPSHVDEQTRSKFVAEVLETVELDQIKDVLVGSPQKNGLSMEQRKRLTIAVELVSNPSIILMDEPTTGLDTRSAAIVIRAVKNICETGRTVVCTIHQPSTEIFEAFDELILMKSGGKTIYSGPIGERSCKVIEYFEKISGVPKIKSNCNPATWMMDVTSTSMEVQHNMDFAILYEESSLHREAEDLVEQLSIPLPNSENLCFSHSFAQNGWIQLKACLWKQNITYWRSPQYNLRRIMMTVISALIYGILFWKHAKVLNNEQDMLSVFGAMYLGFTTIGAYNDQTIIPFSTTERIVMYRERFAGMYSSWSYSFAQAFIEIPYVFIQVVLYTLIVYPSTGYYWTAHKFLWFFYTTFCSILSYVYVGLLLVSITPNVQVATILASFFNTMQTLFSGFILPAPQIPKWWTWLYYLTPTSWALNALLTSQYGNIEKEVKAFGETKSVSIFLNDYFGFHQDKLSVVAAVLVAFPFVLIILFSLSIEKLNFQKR

LR34res [2] = biological target: T1, LR34res; test: competition of 3H-ABA uptake in LR34res-expressing yeast; format: cell-based; details: 50 nM labelled and unlabelled ABA mixture, 10 min, pH 6.3; competition for substrate binding suggested, not proven

Row | Compound | relative 3H-ABA accumulation (% of control) (LR34res [1]) | % reduction of 3H-ABA uptake at 3 μM (LR34res [2])
1 | COc1ccc(Cl)cc1C(=O)NCCc1ccc(S(=O)(=O)NC(=O)NC2CCCCC2)cc1 [glibenclamide] | The ABC transporter inhibitor glibenclamide | 
2 | C=C[C@](C)(O)CC[C@@H]1[C@@]2(C)CCCC(C)(C)[C@@H]2CC[C@@]1(C)O [sclareol] |  | ~ 40%
